Test results reported in ChEMBL document CHEMBL1147820, “Enhanced pharmacokinetic properties of 1,4-benzodiazepine-2,5-dione antagonists of the HDM2-p53 protein-protein interaction through structure-based drug design” (Bioorg Med Chem Lett, 2006).

Experiments:
[1] = Half life in mouse at 40 mg/kg, po; assay type: ADME, organism-based; parameters: dose 40 mg/kg, route oral; details: in vivo
[2] = Clearance in mouse at 5 mg/kg, iv; assay type: ADME, organism-based; parameters: dose 5 mg/kg, route intravenous; details: in vivo
[3] = Cmax in mouse at 40 mg/kg, po; assay type: ADME, organism-based; parameters: dose 40 mg/kg, route oral; details: in vivo
in vitro [4] = details: human, Caco-2
[5] = Half life in mouse at 5 mg/kg, iv; assay type: ADME, organism-based; parameters: dose 5 mg/kg, route intravenous; details: in vivo
[6] = Tmax in mouse at 40 mg/kg, po; assay type: ADME, organism-based; parameters: dose 40 mg/kg, route oral; details: in vivo
[7] = Bioavailability in mouse; assay type: ADME, organism-based; details: in vivo
[8] = Volume of distribution in mouse at 5 mg/kg, iv; assay type: ADME, organism-based; parameters: dose 5 mg/kg, route intravenous; details: in vivo, read-out: Vdss
in vitro [9] = details: human, Caco-2; remark: listed apart in the source

| Compound | half-life [1] [h] | clearance [2] [mL/min/kg] | Cmax [3] [µM] | Papp A→B (in vitro [4]) [×10⁻⁶ cm/s] | half-life [5] [h] | Tmax [6] [h] | bioavailability [7] [%] | Vd [8] [L/kg] | Papp B→A (in vitro [9]) [×10⁻⁶ cm/s] |
| --- | --- | --- | --- | --- | --- | --- | --- | --- | --- |
| C[C@H](c1ccc(Cl)cc1)N1C(=O)c2cc(I)ccc2N(CCCCC(=O)O)C(=O)[C@@H]1c1ccc(Cl)cc1 | 2.5 | 13.2 | 6.3 | 7.34 | 3.1 | 6 | 100 | 3 | 13 |
| CC#Cc1ccc2c(c1)C(=O)N([C@H](C)c1ccc(Cl)cc1)[C@@H](c1ccc(Cl)cc1)C(=O)N2CCCCC(=O)O |  |  |  | 19.9 |  |  |  |  | 9.1 |
| C#Cc1ccc2c(c1)C(=O)N([C@H](C)c1ccc(Cl)cc1)[C@@H](c1ccc(Cl)cc1)C(=O)N2CCCCC(=O)O |  |  |  | 20.9 |  |  |  |  | 16.1 |
